# Tests used:
# Aspergillus flavus = experiment: Agar plate disc-diffusion, antifungal activity, Aspergillus flavus; type: cell-based; conditions: Sabouraud's dextrose agar, 37° C., 72 h
# Procedure: (§1) The agar plate disc-diffusion method was applied. Sterilized filter papers (6 mm in diameter) were wetted with 10 μL of a solution of 2-(4-chlorophenyl)-4,5-bis(4-chlorophenyl)-1H-imidazole (IV) to be tested, containing 10 mg/mL in DMSO, and the discs were allowed to air dry. The discs were then placed onto the surface of agar plates (nutrient agar for bacteria and Sabouraud's dextrose agar for fungi) seeded with the test organism. Each plate contained 15 mL of the agar medium, previously seeded with 0.2 mL of the broth culture of each organism pregrown for 18 hours. The plates were incubated at 37° C. for 48 h, and 72 h for fungi. The inhibition zones were measured in mm. Discs impregnated with DMSO were used as a control, and its inhibition zone was subtracted from the tested compound actual inhibition zone.
# [1] = tested on: Chrysosporium keratinophilum; experiment: Agar plate disc-diffusion, antifungal activity, Chrysosporium keratinophilum; type: cell-based; conditions: Sabouraud's dextrose agar, 37° C., 72 h
# Procedure: as §1, with “Sterilized filter papers (6 mm in diameter) were wetted with 10 μL of a solution of 2-(4-chlorophenyl)-4,5-bis(4-chlorophenyl)-1H-imidazole (IV) to be tested, containing 10 mg/mL in DMSO, and the discs were allowed to air dry.” left out
# Staphylococcus aureus = experiment: Agar plate disc-diffusion, antibacterial activity, Staphylococcus aureus; type: cell-based; conditions: Staphylococcus aureus (Gram positive), nutrient agar, 37° C., 48 h
# Procedure: as §1, with “Sterilized filter papers (6 mm in diameter) were wetted with 10 μL of a solution of 2-(4-chlorophenyl)-4,5-bis(4-chlorophenyl)-1H-imidazole (IV) to be tested, containing 10 mg/mL in DMSO, and the discs were allowed to air dry.” left out
# Pseudomonas aeruginosa = experiment: Agar plate disc-diffusion, antibacterial activity, Pseudomonas aeruginosa; type: cell-based; conditions: Pseudomonas aeruginosa (Gram negative), nutrient agar, 37° C., 48 h
# Procedure: as §1, with “Sterilized filter papers (6 mm in diameter) were wetted with 10 μL of a solution of 2-(4-chlorophenyl)-4,5-bis(4-chlorophenyl)-1H-imidazole (IV) to be tested, containing 10 mg/mL in DMSO, and the discs were allowed to air dry.” left out
# Escherichia coli = experiment: Agar plate disc-diffusion, antibacterial activity, Escherichia coli; type: cell-based; conditions: Escherichia coli (Gram negative), nutrient agar, 37° C., 48 h
# Procedure: as §1, with “Sterilized filter papers (6 mm in diameter) were wetted with 10 μL of a solution of 2-(4-chlorophenyl)-4,5-bis(4-chlorophenyl)-1H-imidazole (IV) to be tested, containing 10 mg/mL in DMSO, and the discs were allowed to air dry.” left out
# Bacillus cereus = experiment: Agar plate disc-diffusion, antibacterial activity, Bacillus cereus; type: cell-based; conditions: Bacillus cereus (Gram positive), nutrient agar, 37° C., 48 h
# Procedure: as §1, with “Sterilized filter papers (6 mm in diameter) were wetted with 10 μL of a solution of 2-(4-chlorophenyl)-4,5-bis(4-chlorophenyl)-1H-imidazole (IV) to be tested, containing 10 mg/mL in DMSO, and the discs were allowed to air dry.” left out
# [2] = A = concentration of comp. = 10,000 μL
# [3] = B = concentration of comp. = 30,000 μL
# [4] = C = concentration of comp. = 50,000 μL
# [5] = A = concentration of comp. = 10,000 µg/mL
Compound,inhibition zone (Aspergillus flavus; [2]),inhibition zone (Aspergillus flavus; [3]),inhibition zone (Aspergillus flavus; [4]),"inhibition zone [1, 2]","inhibition zone [1, 3]","inhibition zone [1, 4]",inhibition zone (Staphylococcus aureus; [2]),inhibition zone (Staphylococcus aureus; [3]),inhibition zone (Staphylococcus aureus; [4]),inhibition zone (Pseudomonas aeruginosa; [5]),inhibition zone (Pseudomonas aeruginosa; [3]),inhibition zone (Pseudomonas aeruginosa; [4]),melting point,inhibition zone (Escherichia coli; [2]),inhibition zone (Escherichia coli; [3]),inhibition zone (Escherichia coli; [4]),inhibition zone (Bacillus cereus; [2]),inhibition zone (Bacillus cereus; [3]),inhibition zone (Bacillus cereus; [4])
"Clc1ccc(-c2nc(-c3ccc(Cl)cc3)c(-c3ccc(Cl)cc3)[nH]2)cc1 [IV, 2-(4-chlorophenyl)-4,5-bis(4-chlorophenyl)-1H-imidazole]",23 mm,25 mm,33 mm,22 mm,27 mm,40 mm,17 mm,23 mm,34 mm,24 mm,26 mm,43 mm,211 to 212 °C,25 mm,30 mm,48 mm,25 mm,27 mm,40 mm
"O=C(O)c1cn(C2CC2)c2cc(N3CCNCC3)c(F)cc2c1=O [Cip., ciprofloxacin, reference compound]",29 mm,30 mm,42 mm,29 mm,30 mm,53 mm,43 mm,44 mm,53 mm,29 mm,30 mm,53 mm,,30 mm,39 mm,60 mm,29 mm,30 mm,42 mm

# Source: patent publication US11963948B1, “2-(4-chlorophenyl)-4,5-bis(4-chlorophenyl)-1H-imidazole as an antimicrobial compound” (KING FAISAL UNIVERSITY, priority 2023, dated 2024)
